Measurements reported in US10226471B2, “Modified-release dosage forms of 5-HT2C agonists useful for weight management” (Arena Pharmaceuticals, Inc., priority 2010, dated 2019).

How the values were obtained:
[1] = Pharmacokinetics parameters from an open-label, single-dose, cross-over clinical study (GastroPlus input); assay type: in vivo; settings: human, oral, 10 mg, clinical study in the fed and fasted state
Description: The GastroPlus™ software (Simulations Plus, Inc., Lancaster, Calif.) was used to simulate the pharmacokinetics of Compound 1 from immediate-release and modified-release tablets. The release profile follows first order release kinetics and T80% is approximately 8 hours. The lower limit was not defined. Pharmacokinetics parameters of Compound 1 were obtained from an open-label, single-dose, cross-over clinical study in the fed and fasted state. Input variables and default values for GastroPlus™ simulation were as follows

[2] = continuous subcutaneous infusion 0.630 mg/kg/h, Day 28, mean
Description: (§3) On Day 28, animals were placed in Culex® cages for automated blood collection. […] Analyte plasma concentrations were determined by LC/MS/MS. Noncompartmental PK analysis was performed using WinNonlin® (Pharsight®, Mountain View, Calif.) to determine t1/2, Cmaxss, Css and AUClast.

[3] = Adverse events in BLOOM and BLOSSOM (Table A); assay type: in vivo, human; settings: 10 mg BID, N = 3195
Description: (§1) The safety of Compound 1 has been evaluated in three randomized, double-blind, placebo-controlled trials, one of 2 years duration (“BLOOM” trial) and two of 1 year duration (“BLOSSOM” and “BLOOM-DM” trials). A total of 3451 patients were exposed to Compound 1 10 mg twice daily for up to 1 year; 571 patients were exposed for up to 2 years; and an additional 896 patients were exposed to Compound 1 10 mg once daily for up to 1 year. The BLOOM-DM study included only patients with type 2 diabetes mellitus; BLOOM and BLOSSOM excluded patients with diabetes.
(§2) The most common adverse reactions for non-diabetic patients treated with Compound 1 compared to placebo were headache, upper respiratory tract infection, nasopharyngitis, dizziness, and nausea. The most common adverse reactions for diabetic patients were hypoglycemia, headache, back pain, nasopharyngitis, and nausea. Adverse events that were reported by ≥5% of patients and were more frequently reported by patients taking Compound 1 compared to placebo are summarized in Table A (BLOOM and BLOSSOM) and Table B (BLOOM DM).

[4] = Adverse events in BLOOM-DM, patients with type 2 diabetes (Table B); assay type: in vivo, human; settings: 10 mg BID
Description: as §1, §2

[5] = in vivo; settings: male, SD, rat, plasma
Description: as §3

[6] = physchem
[7] = Phase 3 clinical trials of lorcaserin for weight management
[8] = Safety in three randomized, double-blind, placebo-controlled trials (BLOOM, BLOSSOM, BLOOM-DM): discontinuation due to adverse reactions; assay type: in vivo, human
Description: as §1
The discontinuation rate due to adverse reaction was 7.1% for non-diabetic patients and 8.6% for patients with type 2 diabetes receiving Compound 1. The most common adverse reactions leading to discontinuation more often among Compound 1 treated patients than placebo were headache (1.3% vs. 0.8%), depression (0.9% vs. 0.5%) and dizziness (0.7% vs. 0.2%).

[9] = clinical; settings: human, brain (lumbar cerebrospinal fluid measured) and plasma, oral, 10 mg
[10] = Clinical trial of a single oral dose under fed and fasted conditions; assay type: in vivo, human; settings: single oral dose 10 mg
Description: A clinical trial was performed to evaluate the safety and pharmacokinetic profile of a single oral dose of Compound 1 (10 mg) administered to healthy male and female subjects aged 18 to 60 years (inclusive) under fed and fasted conditions. […] Cmax was reduced by approximately 10% in the fed compared to fasted state, but a lack of food effect was not proven. […] Compound 1 was generally well tolerated when dosed in the fasted state and after a high-fat breakfast. There were a higher number of adverse events when dosed in the fasted state, (18 compared to 6) including two moderate intensity (nausea and headache) and one severe (vomiting) intensity events occurring in a single subject.

[11] = in vivo; settings: male, Sprague-Dawley, rat, plasma, po, 24 mg/kg/day
[12] = subcutaneous Alzet pump, 1 mg/kg/h for four days; mean
[13] = not told
[14] = phase 3 trial, after 12 months, ITT-LOCF

C[C@H]1CNCCc2ccc(Cl)cc21 [Compound 1]
blood plasma ratio ([1]; blood and plasma, read-out: Blood to plasma concentration ratio): 1.3
clearance ([1]; plasma): 326 mL/min
Vd ([1]; plasma, read-out: Apparent volume of distribution): 307 L
Css, 0 to 21 h [2]: 155 ng/mL
Back pain, number of patients [3]: 201
Back pain, patients (%) [3]: (6.3) %
Constipation, number of patients [3]: 186
Constipation, patients (%) [3]: (5.8) %
Diarrhea, number of patients [3]: 207
Diarrhea, patients (%) [3]: (6.5) %
Dizziness, number of patients [3]: 270
Dizziness, patients (%) [3]: (8.5) %
Dry mouth, number of patients [3]: 169
Dry mouth, patients (%) [3]: (5.3) %
Fatigue, number of patients [3]: 229
Fatigue, patients (%) [3]: (7.2) %
Headache, number of patients [3]: 537
Headache, patients (%) [3]: (16.8) %
Nasopharyngitis, number of patients [3]: 414
Nasopharyngitis, patients (%) [3]: (13.0) %
Nausea, number of patients [3]: 264
Nausea, patients (%) [3]: (8.3) %
Upper respiratory tract infection, number of patients [3]: 439
Upper respiratory tract infection, patients (%) [3]: (13.7) %
Urinary tract infection, number of patients [3]: 207
Urinary tract infection, patients (%) [3]: (6.5) %
Back pain, patients (%) [4]: (11.7) %
Cough, patients (%) [4]: (8.2) %
Dizziness, patients (%) [4]: (7.0) %
Fatigue, patients (%) [4]: (7.4) %
Gastroenteritis viral, patients (%) [4]: (7.0) %
Headache, patients (%) [4]: (14.5) %
Back pain, number of patients ([4]; N = 3195): 30
Cough, number of patients ([4]; N = 3195): 21
Dizziness, number of patients ([4]; N = 3195): 18
Fatigue, number of patients ([4]; N = 3195): 19
Gastroenteritis viral, number of patients ([4]; N = 3195): 18
Headache, number of patients ([4]; N = 3195): 37
Hypertension, number of patients ([4]; N = 3195): 13
Hypertension, patients (%) ([4]; N = 3195): (5.1) %
Hypoglycemia (including asymptomatic), number of patients ([4]; N = 3195): 75
Hypoglycemia (including asymptomatic), patients (%) ([4]; N = 3195): (29.3) %
Hypoglycemia, symptomatic, number of patients ([4]; N = 3195): 19
Hypoglycemia, symptomatic, patients (%) ([4]; N = 3195): (7.4) %
Influenza, number of patients ([4]; N = 3195): 15
Influenza, patients (%) ([4]; N = 3195): (5.9) %
Nasopharyngitis, number of patients ([4]; N = 3195): 29
Nasopharyngitis, patients (%) ([4]; N = 3195): (11.3) %
Nausea, number of patients ([4]; N = 3195): 24
Nausea, patients (%) ([4]; N = 3195): (9.4) %
Procedural pain, number of patients ([4]; N = 3195): 13
Procedural pain, patients (%) ([4]; N = 3195): (5.1) %
Urinary tract infection, number of patients ([4]; N = 3195): 23
Urinary tract infection, patients (%) ([4]; N = 3195): (9.0) %
AUC(0-t) ([5]; po, 24 mg/kg/day): 4170 ng·h/mL
Cmax ([5]; po, 24 mg/kg/day): 553 ng/mL
AUC(0-t) ([5]; sc, 0.63 mg/kg/h): 3630 ng·h/mL
Cmax ([5]; sc, 0.63 mg/kg/h): 213 ng/mL
t1/2 (Day 6, oral gavage 24 mg/kg/day for 6 days, not fasted, composite profiles, 24 mg/kg/day): 4.02 h
Css = AUC24 hr ÷ dosing interval (24 h) (calculated for the infusion rate of the chronic study): 213 ng/mL
logP [6]: 2.56
pKa [6]: 9.53
excess body weight lost ([7]; first phase 3 trial, based on a normal BMI of 25): about one-third
average weight loss [7, 14]: 12.7 pounds
average weight loss, of body weight [7, 14]: 5.8%
average weight lost, of their weight ([7]; pivotal phase 3 clinical trial program): about 8%
patients achieved at least 10% weight loss ([7]; pivotal phase 3 clinical trial program, treated for up to two years): over one-third
average weight loss, top quartile of patients ([7]; second phase 3 trial): 35 pounds
average weight loss, top quartile of patients, of body weight ([7]; second phase 3 trial): 16%
development of FDA-defined valvulopathy (echocardiograms) ([7]; two-year treatment period): no apparent drug-related effect
depression leading to discontinuation ([8]; Compound 1 treated patients): 0.9%
dizziness leading to discontinuation ([8]; Compound 1 treated patients): 0.7%
headache leading to discontinuation ([8]; Compound 1 treated patients): 1.3%
discontinuation rate due to adverse reaction ([8]; non-diabetic patients): 7.1%
discontinuation rate due to adverse reaction ([8]; patients with type 2 diabetes): 8.6%
Kp [9]: < 1
number of adverse events ([10]; after a high-fat breakfast): 6
number of adverse events ([10]; fasted state): 18
food effect on overall exposure ([10]; fed vs fasted): no food effect on overall exposure
reduction of Cmax in the fed compared to fasted state ([10]; high-fat breakfast): approximately 10%
time of maximum plasma concentrations, fed compared to fasted ([10]; high-fat breakfast): statistically significant delay
AUC(0-inf) [11]: 5210 ng·h/mL
AUC(0-t) [11]: 5210 ng·h/mL
Cmax [11]: 700 ng/mL
Tmax [11]: 0.5 h
half-life ([11]; t1/2, Day 6, oral gavage 24 mg/kg/day for 6 days, not fasted, composite profiles): 4 h
Cl [12]: 49.3 ± 4.83 mL/min/kg
Css from 42 to 90 hours [12]: 340 ng/mL
Papp [13]: 3.54 ×10⁻⁶ cm/s
